For 19 compounds, IC50 results are on record in patent US20260226084A1, “DUAL RAF AND TUBULIN INHIBITORS AND METHODS OF USE THEREOF” (Deciphera Pharmaceuticals, LLC, priority 2023, published 2026).

Structures are written as SMILES. pIC50: −log10 of the molar value. Like-named read-outs stand apart in the source and are kept apart here.

Experiment [1] deals with T1, C-Raf kinase (SEQ ID NO: 2) (Homo sapiens, UniProt P04049, Y340D/Y341D).
T1 construct: C-Raf residues 306-end; Y340D, Y341D with; GST (N); purchased Sigma
T1 sequence (P04049 307-648 Y340D/Y341D): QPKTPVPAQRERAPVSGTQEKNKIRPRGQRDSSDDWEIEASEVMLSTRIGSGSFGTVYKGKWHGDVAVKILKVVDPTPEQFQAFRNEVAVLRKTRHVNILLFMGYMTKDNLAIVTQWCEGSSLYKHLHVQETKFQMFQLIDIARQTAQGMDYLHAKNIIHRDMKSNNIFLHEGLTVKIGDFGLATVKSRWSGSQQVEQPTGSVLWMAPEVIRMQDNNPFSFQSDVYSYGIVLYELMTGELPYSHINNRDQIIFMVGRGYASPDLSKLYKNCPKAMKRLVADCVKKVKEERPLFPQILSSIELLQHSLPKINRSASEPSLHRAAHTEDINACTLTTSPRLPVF
Briefly: Biochemical Assay for C-Raf (coupled pyruvate kinase/lactate dehydrogenase assay). The conditions noted are these: 1 mM ATP; read-out: CRAF (inhibition of biochemical activity, IC50).

Another experiment concerns HPAF-II cells. Nature of the experiment: HPAF-II Cell Proliferation Assay. It is filed as cell-based. The conditions noted are these: HPAF-II cells, Table 2, read-out: Inhibition of cell proliferation in HPAF-II (IC50 class). The method, boiled down:
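HPAF-II cells (750/well) in complete MEM with 10% FBS were exposed to serially diluted compound in triplicate for 115–120 h at 37 °C, 5% CO2. Resazurin was then added for 18–24 h more; fluorescence (ex 540/em 600 nm) gave IC50.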

In the next experiment the test system is Pa16c cells. Briefly: Pa16c Cell Proliferation Assay. It is filed as cell-based. To be noted: Table 2, read-out: Inhibition of cell proliferation in Pa16c (IC50 class). The method in brief:
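Mouse Pa16c cells, 750/well in DMEM with 10% FBS, exposed to serially diluted compound in triplicate for 67 to 72 h at 37° C. Viability read by resazurin reduction over a further 18 to 24 h (ex 540/em 600 nm). IC50 calculated from the dose-response.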

Experiment [2] has as its target T2, B-Raf kinase (SEQ ID NO: 1) (Homo sapiens, UniProt P15056).
T2 construct: GST (N); purchased Sigma
Briefly: Biochemical Assay for B-Raf (coupled pyruvate kinase/lactate dehydrogenase assay). To be noted: 1 mM ATP; read-out: BRAF (inhibition of biochemical activity, IC50).

A further experiment has as its system HCT-116 cells. Nature of the experiment: HCT-116 Cell Proliferation Assay. It is filed as cell-based. To be noted: Table 2, read-out: Inhibition of cell proliferation in HCT-116 (IC50 class). The method in brief:
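HCT-116 cells, 375/well in McCoy's 5A with 10% FBS, exposed to serial compound dilutions in triplicate for 67 to 72 hours at 37 °C. Viability read by resazurin fluorescence (ex 540/em 600 nm) after a further 4 to 5 h; IC50 values calculated.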

The test system of a further experiment is MiaPaca-2 cells. Nature of the experiment: MiaPaca-2 Cell Proliferation Assay. The class given is cell-based. The conditions noted are these: Table 2, read-out: Inhibition of cell proliferation in MiaPaca-2 (IC50 class). The method in brief: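 Viability was read as resazurin fluorescence (540 nm excitation, 600 nm emission) after 5–6 h with dye. Compounds were tested as serial dilutions in triplicate, with IC50 derived from the dose–response.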

[3] abbreviates: Homo sapiens, HCT-116, HCT-116 cells.
Setting [4] is: Homo sapiens, MIA PaCa-2, MiaPaca-2 cells.

T2 sequence (P15056 416-766): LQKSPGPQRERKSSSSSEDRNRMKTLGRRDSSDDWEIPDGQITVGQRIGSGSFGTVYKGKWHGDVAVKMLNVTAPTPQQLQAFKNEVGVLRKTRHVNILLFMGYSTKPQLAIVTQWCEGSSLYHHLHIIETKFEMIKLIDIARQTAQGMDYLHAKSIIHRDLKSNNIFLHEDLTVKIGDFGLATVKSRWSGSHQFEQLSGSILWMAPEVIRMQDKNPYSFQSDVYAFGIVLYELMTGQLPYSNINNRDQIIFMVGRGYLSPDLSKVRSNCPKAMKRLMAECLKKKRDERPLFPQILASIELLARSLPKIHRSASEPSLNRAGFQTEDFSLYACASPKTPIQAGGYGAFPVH

For `Cc1ccc(NC(=O)c2cncc(C(F)(F)F)n2)cc1-c1ccnc(-c2ccnc(NC(=O)C3CC3)c2)c1` [Example 84], the pIC50 was above 7.00 in experiment [1]; 5.00 to 6.00 in the experiment with HPAF-II cells (Homo sapiens, HPAF-II); 5.00 to 6.00 with Pa16c cells; above 7.00 in experiment [2]; 5.00 to 6.00 in the experiment on HCT-116 cells (setting [3]); 5.00 to 6.00 with MiaPaca-2 cells (setting [4]).
As for `Cc1ccc(NC(=N)c2cc(C(F)(F)F)cnn2)cc1-c1ccnc(-c2ccnc(NC(=O)C3CC3)c2)c1` [Example 86], the pIC50 was above 7.00 in experiment [1]; 5.00 to 6.00 with HPAF-II cells (Homo sapiens, HPAF-II); 5.00 to 6.00 with Pa16c cells; 6.30 to 7.00 in experiment [2]; 5.00 to 6.00 with HCT-116 cells (setting [3]); 5.00 to 6.00 in the experiment with MiaPaca-2 cells (setting [4]).
Take `Cc1ccc(NC(=N)c2cc(C3CC3)cnn2)cc1-c1ccnc(-c2ccnc(NC(=O)C3CC3)c2)c1` [Example 87]: the pIC50 is above 7.00 in experiment [1]; 5.00 to 6.00 with HPAF-II cells (Homo sapiens, HPAF-II); 5.00 to 6.00 in the experiment on Pa16c cells; above 7.00 in experiment [2]; 5.00 to 6.00 in the experiment with HCT-116 cells (setting [3]); 5.00 to 6.00 with MiaPaca-2 cells (setting [4]).
Turning to `CNCC(=O)Nc1cc(-c2cc(-c3cc(NC(=O)c4cc(C(F)(F)F)cnn4)ccc3C)ccn2)ccn1` [Example 88], the pIC50 in experiment [1] was above 7.00; in the experiment on HPAF-II cells (Homo sapiens, HPAF-II), 6.30 to 7.00; with Pa16c cells, 5.00 to 6.00; in experiment [2], above 7.00; with HCT-116 cells (setting [3]), 6.30 to 7.00; in the experiment on MiaPaca-2 cells (setting [4]) it was 6.30 to 7.00.
`Cc1ccc(NC(=O)c2cc(C(F)(F)F)cnn2)cc1-c1ccnc(-c2ccnc(NC(=O)CC3(C)CC3)c2)c1` [Example 90]: the pIC50 in experiment [1] is 6.30 to 7.00; in the experiment on HPAF-II cells (Homo sapiens, HPAF-II), 6.30 to 7.00; with Pa16c cells, 5.00 to 6.00; in experiment [2] it was 6.30 to 7.00; with HCT-116 cells (setting [3]), 6.30 to 7.00; in the experiment on MiaPaca-2 cells (setting [4]) it was 6.30 to 7.00.
Turning to `CC(=N)Nc1cc(-c2cc(-c3cc(NC(=O)c4cc(C(F)(F)F)cnn4)ccc3C)ccn2)ccn1` [Example 91], the pIC50 was 6.30 to 7.00 in experiment [1]; 5.00 to 6.00 in the experiment with HPAF-II cells (Homo sapiens, HPAF-II); 5.00 to 6.00 with Pa16c cells; 6.30 to 7.00 in experiment [2]; 6.00 to 6.30 in the experiment with HCT-116 cells (setting [3]); 6.00 to 6.30 with MiaPaca-2 cells (setting [4]).
As to `Cc1ccc(NC(=O)c2cc(C(F)(F)F)cnn2)cc1-c1ccnc(-c2ccnc(NC(=O)C3CNCC3(F)F)c2)c1` (stereo not drawn) [Example 92, N-[3-[2-[2-[(4,4-difluoropyrrolidine-3-carbonyl)amino]-4-pyridyl]-4-pyridyl]-4-methyl-phenyl]-5-(trifluoromethyl)pyridazine-3-carboxamide], the pIC50 in experiment [1] is above 7.00; with HPAF-II cells (Homo sapiens, HPAF-II), 6.00 to 6.30; in the experiment with Pa16c cells it was 6.00 to 6.30; in experiment [2], above 7.00; with HCT-116 cells (setting [3]) it was 6.30 to 7.00; with MiaPaca-2 cells (setting [4]) it was 6.30 to 7.00.
Consider `CC(=O)Nc1cc(-c2cc(-c3cc(NC(=O)c4cc(C(F)(F)F)cnn4)ccc3C)ccn2)ccn1` [Example 93], for which the pIC50 in experiment [1] was above 7.00; in the experiment on HPAF-II cells, above 7.00; with Pa16c cells, 5.00 to 6.00; in experiment [2] it was above 7.00; in the experiment with HCT-116 cells (HCT-116 cells) it was above 7.00; in the experiment with MiaPaca-2 cells (MiaPaca-2 cells) it was 6.30 to 7.00.
Take `Cc1ccc(NC(=O)c2cc(C(F)(F)F)cnn2)cc1-c1ccnc(-c2ccnc(NC(=O)C3CN(C)CC3(F)F)c2)c1` (stereo not drawn) [Example 94, N-(3-(2′-(4,4-difluoro-1-methylpyrrolidine-3-carboxamido)-[2,4′-bipyridin]-4-yl)-4-methylphenyl)-5-(trifluoromethyl)pyridazine-3-carboxamide]: the pIC50 in experiment [1] was above 7.00; in the experiment on HPAF-II cells (Homo sapiens, HPAF-II), 5.00 to 6.00; in the experiment on Pa16c cells, 5.00 to 6.00; in experiment [2], 6.30 to 7.00; in the experiment on HCT-116 cells (setting [3]), 6.30 to 7.00; with MiaPaca-2 cells (setting [4]) it was 6.00 to 6.30.
Take `CCNc1cc(-c2cc(-c3cc(NC(=O)c4cc(C(F)(F)F)cnn4)ccc3C)ccn2)ccn1` [Example 95]: the pIC50 is 6.30 to 7.00 in experiment [1]; 6.30 to 7.00 in the experiment on HPAF-II cells (Homo sapiens, HPAF-II); 6.00 to 6.30 in the experiment on Pa16c cells; 6.30 to 7.00 in experiment [2]; 6.30 to 7.00 with HCT-116 cells (setting [3]); 6.30 to 7.00 in the experiment with MiaPaca-2 cells (setting [4]).
With `Cc1ccc(NC(=O)c2cc(C)c(C)nn2)cc1-c1ccnc(-c2ccnc(NC(=O)C3CC3)c2)c1` [Example 97], the pIC50 was above 7.00 in experiment [1]; 5.00 to 6.00 with HPAF-II cells (Homo sapiens, HPAF-II); 5.00 to 6.00 with Pa16c cells; above 7.00 in experiment [2]; 5.00 to 6.00 in the experiment with HCT-116 cells (setting [3]); 5.00 to 6.00 in the experiment with MiaPaca-2 cells (setting [4]).
For the compound `Cc1ccc(NC(=O)c2cc3c(nn2)CCC3)cc1-c1ccnc(-c2ccnc(NC(=O)C3CC3)c2)c1` [Example 98], the pIC50 was above 7.00 in experiment [1]; 5.00 to 6.00 in the experiment with HPAF-II cells (Homo sapiens, HPAF-II); 5.00 to 6.00 in the experiment with Pa16c cells; above 7.00 in experiment [2]; 5.00 to 6.00 in the experiment with HCT-116 cells (setting [3]); 5.00 to 6.00 with MiaPaca-2 cells (setting [4]).
As for `Cc1ccc(NC(=O)c2cc(N)cnn2)cc1-c1ccnc(-c2ccnc(NC(=O)C3CC3)c2)c1` [Example 99], the pIC50 in experiment [1] is 6.30 to 7.00; with HPAF-II cells (Homo sapiens, HPAF-II) it was 5.00 to 6.00; in the experiment on Pa16c cells, 5.00 to 6.00; in experiment [2], 6.00 to 6.30; in the experiment with HCT-116 cells (setting [3]), 5.00 to 6.00; with MiaPaca-2 cells (setting [4]) it was 5.00 to 6.00.
In the case of `Cc1ccc(NC(=O)c2cc(C3CC3)cnn2)cc1-c1cc(NCCO)nc(-c2ccnc(NC(=O)C3CC3)c2)c1` [Example 100], the pIC50 in experiment [1] is above 7.00; with HPAF-II cells (Homo sapiens, HPAF-II) it was 6.30 to 7.00; in the experiment on Pa16c cells it was above 7.00; in experiment [2], above 7.00; with HCT-116 cells (setting [3]), above 7.00; in the experiment with MiaPaca-2 cells (setting [4]), 6.30 to 7.00.
Regarding `Cc1ccc(NC(=O)c2cc(C(C)(F)F)cnn2)cc1-c1cc(NCCO)nc(-c2ccnc(NC(=O)C3CC3)c2)c1` [Example 101], the pIC50 in experiment [1] is above 7.00; in the experiment on HPAF-II cells (Homo sapiens, HPAF-II), 6.30 to 7.00; in the experiment with Pa16c cells, above 7.00; in experiment [2], above 7.00; in the experiment with HCT-116 cells (setting [3]), above 7.00; with MiaPaca-2 cells (setting [4]), 6.30 to 7.00.
For `Cc1ccc(NC(=O)c2cc(C3CC3)cnn2)cc1-c1nc(NCCO)cc(-c2ccnc(NC(=O)C3CC3)c2)n1` [Example 102], the pIC50 in experiment [1] was above 7.00; in the experiment with HPAF-II cells (Homo sapiens, HPAF-II), 5.00 to 6.00; with Pa16c cells, 5.00 to 6.00; in experiment [2], above 7.00; in the experiment on HCT-116 cells (setting [3]), 6.00 to 6.30; with MiaPaca-2 cells (setting [4]) it was 5.00 to 6.00.
As to `Cc1ccc(NC(=O)c2cc(C3CC3)cnn2)cc1-c1cc(NCCO)nc(-c2ccnc(NC(=O)C3CC3)c2)n1` [Example 103], the pIC50 in experiment [1] was above 7.00; with HPAF-II cells (Homo sapiens, HPAF-II) it was 6.00 to 6.30; in the experiment on Pa16c cells, 5.00 to 6.00; in experiment [2], above 7.00; with HCT-116 cells (setting [3]), above 7.00; in the experiment on MiaPaca-2 cells (setting [4]), 6.00 to 6.30.
For `Cc1ccc(NC(=O)c2cc(C3CC3)cnn2)cc1-c1cc(OCCO)nc(-c2ccnc(NC(=O)C3CC3)c2)c1` [Example 104], the pIC50 in experiment [1] is above 7.00; with HPAF-II cells (Homo sapiens, HPAF-II), 6.30 to 7.00; in the experiment with Pa16c cells, 6.30 to 7.00; in experiment [2], above 7.00; in the experiment on HCT-116 cells (setting [3]), 6.30 to 7.00; in the experiment with MiaPaca-2 cells (setting [4]) it was 6.00 to 6.30.
In the case of `Cc1ccc(NC(=O)c2cncc(C(C)(C)C#N)c2)cc1-c1ccnc(-c2ccnc(NC(=O)C3CC3)c2)c1` [Example 105], the pIC50 in experiment [1] is above 7.00; in the experiment with HPAF-II cells (Homo sapiens, HPAF-II) it was 6.30 to 7.00; in the experiment on Pa16c cells, 5.00 to 6.00; in experiment [2], above 7.00; in the experiment on HCT-116 cells (setting [3]), above 7.00; with MiaPaca-2 cells (setting [4]), 6.30 to 7.00.
